How the values were obtained:
KB cells = experiment: MTS cytotoxicity test with KB cells; assay type: cell-based, human; conditions: mean of 2 experiments
How it was run: (§1)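 Cells were plated at 1000/well, preincubated 24 h, then exposed for three days at 37 °C to nine 2-fold serial dilutions in quadruplicate. MTS formazan absorbance was normalized to a time-0 plate read at drug addition. IC50 was taken as the concentration halfway between maximum and minimum signal.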

HL-60/ADR cells = experiment: MTS cytotoxicity test with HL-60/ADR cells (MRP1); assay type: cell-based, human; conditions: for IC50: HL-60/ADR cells, mean of 2 experiments; for Ratio: IC50 on HL-60/ADR cells/IC50 on HL-60 cells
How it was run: (§2)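 Parental HL-60 and MRP1-overexpressing HL-60/ADR cells seeded at 1000/well, then after ~24 hr exposed to nine 2-fold dilutions of compound in quadruplicate for three days at 37° C. MTS formazan absorbance normalised to a time-0 plate; IC50 taken as concentration halfway between maximum and minimum colour yield.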

HL-60 cells = experiment: MTS cytotoxicity test with HL-60 cells; assay type: cell-based, human; conditions: mean of 2 experiments
How it was run: as §2

MAP-rich tubulin = experiment: Tubulin polymerization test with MAP-rich tubulin; assay type: biochemical, bovine; conditions: 0.3 μM compound, mean A340 at 20 min, fold enhancement over control
Method: Medium is RPMI-1640 with L-glutamine, supplemented with 10% heat-inactivated fetal calf serum, 100 units/mL penicillin, and 100 μg/mL streptomycin (Gibco, Grand Island, N.Y.). Microtubule-associated protein (MAP)-rich tubulin, containing about 70% tubulin and 30% MAPs (#ML113), and highly purified tubulin (>99% pure, #TL238), both from bovine brain, are obtained from Cytoskeleton, Inc., Denver, Colo. PEM buffer (80 mM piperazine-N,N′-bis[2-ethanesulfonic acid], pH 6.9, 1 mM ethylene glycol-bis(β-aminoethyl ether)-N,N,N′,N′-tetraacetic acid, 1 mM magnesium chloride) and guanosine 5′-triphosphate (GTP) are also obtained from Cytoskeleton. […] [^3H]vinblastine, specific activity 9.60 Ci/mmol and MicroSpin G-50 columns are obtained from Amersham Biosciences (Piscataway, N.J.). […] Other reagents are obtained from Sigma (St. Louis, Mo.).
MAP-rich tubulin is dissolved in ice-cold PEM buffer containing 1 mM GTP (GPEM buffer) at a concentration of 1.3 mg/mL. The solution is centrifuged at top speed in an Eppendorf model 5415C microcentrifuge (Brinkmann Instruments, Westbury, N.Y.) for 10 min at 4° immediately before use. The tubulin solution is added to wells of a ½-area 96-well plate (Costar No. 3696, Corning, Inc., Corning, N.Y.) already containing the compounds of interest. Each compound is tested in duplicate at a final concentration of 0.3 μM in a volume of 110 μL per well. The final DMSO concentration in all wells is 0.3%. Control reactions, which receive compound solvent only, are done in quadruplicate. The plate is put in a SpectraMax Plus plate reader (Molecular Devices Corp. Sunnyvale, Calif.) thermostated at 24° and the absorbance of each well at 340 nm, a measure of the appearance of turbidity due to tubulin polymer formation, is determined every minute for 60 minutes. The absorbance at time 0 for each well is subtracted from each of the subsequent absorbance readings for that well, and then the duplicates are averaged.

KB-8-5 cells = experiment: MTS cytotoxicity test with KB-8-5 cells (moderate P-glycoprotein); assay type: cell-based, human; conditions: for Ratio 8.5/KB: IC50 on KB 8.5 cells/IC50 on KB cells; for IC50: KB 8.5 cells, mean of 2 experiments
How it was run: as §1

KB-V1 cells = experiment: MTS cytotoxicity test with KB-V1 cells (very high P-glycoprotein); assay type: cell-based, human; conditions: for Ratio VI/KB: IC50 on KB VI cells/IC50 on KB cells; for IC50: KB VI cells, mean of 2 experiments
How it was run: as §1

S1 cells = experiment: MTS cytotoxicity test with S1 cells; assay type: cell-based, human; conditions: mean of 2 experiments
How it was run: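 S1 parental colon carcinoma line and MXR-overexpressing S1-M1 seeded at 1000 cells/well, 24 h, then exposed 3 days to nine 2-fold compound dilutions in quadruplicate. MTS formazan absorbance normalised to time-0 plate; IC50 taken at half-way between maximum and minimum colour yield.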

| Structure (SMILES) | IC50 (KB cells) [nM] | IC50 (HL-60/ADR cells) [nM] | Ratio (HL-60/ADR cells) | IC50 (HL-60 cells) [nM] | A340 Compound / A340 Control (MAP-rich tubulin) | Ratio 8.5/KB (KB-8-5 cells) | IC50 (KB-8-5 cells) [nM] | Ratio VI/KB (KB-V1 cells) | IC50 (KB-V1 cells) [nM] | IC50 (S1 cells) [nM] | IC50 (KB cells; Homo sapiens) [nM] | IC50 (HL-60/ADR cells; Homo sapiens, HL60/ADR) [nM] | IC50 (HL-60 cells; Homo sapiens) [nM] | IC50 (KB-8-5 cells; Homo sapiens) [nM] | IC50 (KB-V1 cells; Homo sapiens, KB-V1) [nM] | IC50 (S1 cells; Homo sapiens) [nM] |
| --- | --- | --- | --- | --- | --- | --- | --- | --- | --- | --- | --- | --- | --- | --- | --- | --- |
| CNCCCOc1cc(F)c(-c2c(Cl)nc(-c3cnccn3)nc2N[C@@H](C)C(F)(F)F)c(F)c1.Cl [Example 24a, 6-Chloro-5-{2,6-difluoro-4-[3-(methylamino)propoxy]phenyl}-2-pyrazin-2-yl-N-[(1S)-2,2,2-trifluoro-1-methylethyl]pyrimidin-4-amine hygrogen chloride] | 7 | 6.3 | 1.0 | 6.6 | 2.3 | 3.5 | 24 | 58 | 405 | 20 | – | – | – | – | – | – |
| CNCCCOc1cc(F)c(-c2c(Cl)nc(-c3ccccn3)nc2N[C@@H](C)C(F)(F)F)c(F)c1.Cl [Example 29a, 6-Chloro-5-{2,6-difluoro-4-[3-(methylamino)propoxy]phenyl}-2-pyridin-2-yl-N-[(S)-2,2,2-trifluoro-1-methylethyl]pyrimidin-4-amine hydrogen chloride] | – | – | 1.0 | – | 2.4 | 3.4 | – | 69 | – | – | 6.2 | 6.8 | 6.9 | 21 | 423 | 7.9 |
| CNCCCOc1cc(F)c(-c2c(Cl)nc(-n3cccn3)nc2N[C@@H](C)C(F)(F)F)c(F)c1.Cl [Example 32a, 6-Chloro-5-{2,6-difluoro-4-[3-(methylamino)propoxy]phenyl}-2-(1H-pyrazol-1-yl)-N-[(1S)-2,2,2-trifluoro-1-methylethyl)pyrimidin-4-amine Hydrogen Chloride] | – | – | 0.8 | – | 2.3 | 14 | – | 242 | – | – | 2.4 | 2.2 | 2.6 | 32 | 569 | 9.9 |
| CC(=O)O[C@H]1C(=O)[C@@]2(C)[C@H]([C@H](OC(=O)c3ccccc3)[C@]3(O)C[C@H](OC(=O)[C@H](O)[C@@H](NC(=O)c4ccccc4)c4ccccc4)C(C)=C1C3(C)C)[C@]1(OC(C)=O)CO[C@@H]1C[C@@H]2O [Paclitaxel, reference compound] | – | – | – | – | 2.4 | – | – | – | – | – | – | 3.5 | 3 | – | 2010 | 4.2 |
| CC[C@]1(O)C[C@H]2CN(CCc3c([nH]c4ccccc34)[C@@](C(=O)OC)(c3cc4c(cc3OC)N(C=O)[C@H]3[C@@](O)(C(=O)OC)[C@H](OC(C)=O)[C@]5(CC)C=CCN6CC[C@]43[C@@H]65)C2)C1 [Vincristine, reference compound] | – | – | 9.6 | – | 0.2 | 26 | – | 925 | – | – | 2.2 | 24 | 2.5 | 58 | 2040 | 14 |
